In ChEMBL document CHEMBL1146350, “Synthesis of some new bioactive 3-amino-2-mercapto-5,6,7,8-tetrahydro[1]benzothieno[2,3-d]pyrimidin-4(3H)-one derivatives” (2007):
Values after ≈ are worked out from the molar mass of the structure shown. Active and inactive are the calls of the source. No cut-off for these calls is given here.

What was measured:
Klebsiella pneumoniae = assay: Antibacterial activity against Klebsiella pneumoniae by disc diffusion method; format: functional; settings: for MIC: Klebsiella pneumoniae
Pseudomonas aeruginosa = assay: Antibacterial activity against Pseudomonas aeruginosa ATCC 27853 by disc diffusion method; format: functional; settings: for MIC: Pseudomonas aeruginosa, ATCC 27853
Escherichia coli = assay: Antibacterial activity against Escherichia coli ATCC 25922 by disc diffusion method; format: functional; settings: for MIC: Escherichia coli, ATCC 25922
Staphylococcus aureus = assay: Antibacterial activity against Staphylococcus aureus ATCC 25923 by disc diffusion method; format: functional
Aspergillus fumigatus = assay: Antifungal activity against Aspergillus fumigatus NCIM 902 by serial plate dilution method; format: functional; settings: for MIC: Aspergillus fumigatus, NCIM 902
Aspergillus flavus = assay: Antifungal activity against Aspergillus flavus NCIM 524 by serial plate dilution method; format: functional; settings: for MIC: Aspergillus flavus, NCIM 524
Trichophyton benhamiae = assay: Antifungal activity against Trichophyton mentagrophytes by serial plate dilution method; format: functional, Arthroderma benhamiae; settings: for MIC: Trichophyton benhamiae
Talaromyces marneffei = assay: Antifungal activity against Penicillium marneffei by serial plate dilution method; format: functional; settings: for MIC: Talaromyces marneffei
Mus musculus [1] = assay: Anticonvulsant activity in Swiss Albino mouse assessed as duration of seizure at 50 mg/kg, po by PTZ induced seizure test; format: functional
Rattus norvegicus = assay: Antiinflammatory activity in Wister Albino rat assessed as inhibition of paw edema at 50 mg/kg, po after 3hrs; format: functional
Mus musculus [2] = assay: Anticonvulsant activity in Swiss Albino mouse assessed as duration of seizure at 2 mg/kg, po by PTZ induced seizure test; format: functional
Mus musculus [3] = assay: Anticonvulsant activity in Swiss Albino mouse assessed as mortality at 50 mg/kg, po by PTZ induced seizure test; format: functional, organism-based; set-up: dose 50 mg/kg
[4] = Staphylococcus aureus, ATCC 25923, read-out: MIC

Row | SMILES | inhibition zone (IZ) (Klebsiella pneumoniae) [mm] | MIC (Klebsiella pneumoniae) [mg/L] | inhibition zone (IZ) (Pseudomonas aeruginosa) [mm] | MIC (Pseudomonas aeruginosa) [mg/L] | inhibition zone (IZ) (Escherichia coli) [mm] | MIC (Escherichia coli) [mg/L] | inhibition zone (IZ) (Staphylococcus aureus) [mm] | inhibition zone (IZ) (Aspergillus fumigatus) [mm] | MIC (Aspergillus fumigatus) [mg/L] | inhibition zone (IZ) (Aspergillus flavus) [mm] | MIC (Aspergillus flavus) [mg/L] | MIC (Staphylococcus aureus; [4]) [mg/L] | inhibition zone (IZ) (Trichophyton benhamiae) [mm] | MIC (Trichophyton benhamiae) [mg/L] | inhibition zone (IZ) (Talaromyces marneffei) [mm] | MIC (Talaromyces marneffei) [mg/L] | Activity (Mus musculus [1]) [s] | inhibition in vivo at 50 mg/kg (Rattus norvegicus) [%] | Activity (Mus musculus [2]) [s] | Activity (Mus musculus [3]) | further results
1 | CN[C@@H]1[C@H](O[C@H]2[C@H](O[C@H]3[C@H](O)[C@@H](O)[C@H](N=C(N)N)[C@@H](O)[C@@H]3N=C(N)N)O[C@@H](C)[C@]2(O)C=O)O[C@@H](CO)[C@H](O)[C@H]1O (stereo in doubt) [STREPTOMYCIN] | 24 | < 6.25 | 24 | < 6.25 | 20 | < 6.25 | 21 | – | – | – | – | – | – | – | – | – | – | – | – | – | MIC (Staphylococcus aureus): <6.25 ug/sq.cm
2 | O=c1c2c3c(sc2nc2sc(-c4cc(Cl)cc(Cl)c4)nn12)CCCC3 | 6 | > 100 | 8 | > 100 | 8 | > 100 | 8 | 5 | > 100 | 6 | > 100 | > 100 | 6 | > 100 | 5 | > 100 | – | – | – | – | –
3 | Nn1c(SCC(=O)c2cc3ccccc3oc2=O)nc2sc3c(c2c1=O)CCCC3 | 22 | < 6.25 | 8 | > 100 | 18 | 12.5 (≈ 28.4 µM) | 22 | 8 | > 100 | 12 | 80 (≈ 182 µM) | 6.25 (≈ 14.2 µM) | 8 | > 100 | 6 | > 100 | 30 | 6.67 | 56 | inactive | –
4 | CCc1nn2c(=O)c3c4c(sc3nc2s1)CCCC4 | 22 | 10 (≈ 34.3 µM) | 18 | 10 (≈ 34.3 µM) | 10 | 80 (≈ 275 µM) | 8 | 6 | > 100 | 8 | > 100 | > 100 | 6 | > 100 | 6 | > 100 | 185 | 51.1 | 110 | inactive | –
5 | Nn1c(SCC(=O)c2ccc(Cl)cc2)nc2sc3c(c2c1=O)CCCC3 | 6 | > 100 | 18 | 12.5 (≈ 30.8 µM) | 8 | > 100 | 8 | 8 | > 100 | 6 | > 100 | > 100 | 8 | > 100 | 6 | > 100 | 255 | – | 400 | inactive | –
6 | O=c1c2c3c(sc2nc2sc(=S)[nH]n12)CCCC3 | – | – | – | – | – | – | – | – | – | – | – | – | – | – | – | – | 39 | 7.69 | 56 | inactive | –
7 | Nn1c(SCC(=O)c2ccnc(Cl)c2)nc2sc3c(c2c1=O)CCCC3 | 10 | 80 (≈ 197 µM) | 8 | > 100 | 8 | > 100 | 10 | 10 | 80 (≈ 197 µM) | 6 | > 100 | 80 (≈ 197 µM) | 8 | > 100 | 6 | > 100 | – | – | – | – | –
8 | Nn1c(SCC(=O)c2ccc(O)c(O)c2)nc2sc3c(c2c1=O)CCCC3 | 10 | 80 (≈ 198 µM) | 16 | 60 (≈ 149 µM) | 10 | 80 (≈ 198 µM) | 16 | 8 | > 100 | 6 | > 100 | 60 (≈ 149 µM) | 8 | > 100 | 6 | > 100 | 270 | – | 62 | inactive | –
9 | COc1ccc(C(=O)CSc2nc3sc4c(c3c(=O)n2N)CCCC4)cc1 | 18 | 12.5 (≈ 31.1 µM) | 8 | > 100 | 8 | > 100 | 8 | 16 | 12.5 (≈ 31.1 µM) | 12 | 80 (≈ 199 µM) | > 100 | 4 | > 100 | 8 | > 100 | 450 | – | 41 | inactive | –
10 | Nn1c(SCC(=O)c2ccccc2)nc2sc3c(c2c1=O)CCCC3 | 8 | > 100 | 8 | > 100 | 8 | > 100 | 18 | 8 | > 100 | 10 | 80 (≈ 215 µM) | 12.5 (≈ 33.6 µM) | 8 | > 100 | 6 | > 100 | – | 4.44 | – | – | –
11 | OC(Cn1cncn1)(Cn1cncn1)c1ccc(F)cc1F [FLUCONAZOLE] | – | – | – | – | – | – | – | 21 | < 6.25 | 18 | < 6.25 | – | 19 | < 6.25 | 21 | < 6.25 | – | – | – | – | –
12 | O=c1c2c3c(sc2nc2sc(Cc4ccccc4)nn12)CCCC3 | 8 | > 100 | 10 | 80 (≈ 226 µM) | 10 | 80 (≈ 226 µM) | 8 | 6 | > 100 | 10 | 80 (≈ 226 µM) | > 100 | 6 | > 100 | 6 | > 100 | – | – | – | – | –
13 | O=c1c2c3c(sc2nc2sc(CCl)nn12)CCCC3 | – | – | – | – | – | – | – | – | – | – | – | – | – | – | – | – | 450 | – | 70 | inactive | –
